Assay results as given in US10265307B2, “Thiazolecarboxamides and pyridinecarboxamide compounds useful as Pim kinase inhibitors” (Incyte Corporation, priority 2013, dated 2019).
Read-outs that look alike come from different tables or passages of the source.

Key:
Type in all cases: biochemical
[1] = molecular target: Pim-3 (Homo sapiens (Human), UniProt Q86V86); assay: Pim-3 kinase assay; settings: 1 mM ATP; read-out: Pim3 IC50
Description: Pim-1 and Pim-3 kinase assays-20 μL reactions were run in white 384 well polystyrene plates dotted with 0.8 μL compound/DMSO in the assay buffer (50 mM Tris, pH 7.5, 0.01% Tween-20, 5 mM MgCl2, 0.01% BSA, 5 mM DTT), containing 0.05 μM Biotin-labeled BAD peptide substrate (AnaSpec 62269), 1 mM ATP, and […] (Pim-1, Invitrogen PV3503) or […] (Pim-3, Millipore 14-738) enzyme for 1 h at 25° C. Reactions were stopped by addition of 10 μL STOP Buffer (150 mM Tris, pH=7.5, 150 mM NaCl, 75 mM EDTA, 0.01% Tween-20, 0.3% BSA) supplemented with Phospho-Bad (Ser112) Antibody (Cell Signaling 9291) diluted 666-fold, and Streptavidin donor beads (PerkinElmer 6760002) along with Protein-A acceptor beads (PerkinElmer 6760137) at 15 μg/mL each. Supplementation of the STOP buffer with beads and stopping the reactions were done under reduced light. Prior to the stopping reactions STOP buffer with beads was pre-incubated for 1 h in the dark at room temperature. After stopping the reactions, plates were incubated for 1 h in the dark at room temperature before reading on a PHERAstar FS plate reader (BMG Labtech) under reduced light.

[2] = molecular target: Pim-2 (Homo sapiens (Human), UniProt Q9P1W9); assay: Pim-2 kinase assay
Sequence of Pim-2 (Q9P1W9 whole entry): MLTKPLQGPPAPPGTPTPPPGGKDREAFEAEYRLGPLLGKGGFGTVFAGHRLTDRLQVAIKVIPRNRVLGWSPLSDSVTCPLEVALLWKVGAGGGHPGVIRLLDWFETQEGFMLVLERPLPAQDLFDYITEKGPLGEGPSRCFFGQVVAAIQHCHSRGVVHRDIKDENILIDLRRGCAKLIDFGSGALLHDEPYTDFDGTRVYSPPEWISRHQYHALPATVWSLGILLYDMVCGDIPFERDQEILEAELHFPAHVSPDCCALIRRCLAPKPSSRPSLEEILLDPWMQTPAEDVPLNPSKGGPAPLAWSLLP
Description: Pim-2 kinase assay-20 μL reactions were run in white 384 well polystyrene plates dotted with 0.8 μL compound/DMSO in the assay buffer (50 mM Tris, pH 7.5, 0.01% Tween-20, 5 mM MgCl2, 0.01% BSA, 5 mM DTT), containing 0.05 μM Fluorescein-labeled CREBtide peptide substrate (Invitrogen PV3508), 1 mM ATP, and 1 nM enzyme (Invitrogen PV3649) for 2 h at 25° C. Reactions were stopped by addition of 10 μL TR-FRET Dilution Buffer (Invitrogen PV3574) with 30 mM EDTA and 1.5 nM LanthaScreen Tb-CREB pSer133 antibody (Invitrogen PV3566). After 30 min. incubation at room temperature, plates were read on a PHERAstar FS plate reader (BMG Labtech).
Although the above in vitro assays are conducted at 1 mM ATP compounds can also be evaluated for potency and in vitro activity against PIM targets utilizing Km conditions, where the concentration of ATP is set to the Km value and the assay is more sensitive to PIM inhibition activity.

[3] = molecular target: Pim-1 (Homo sapiens (Human), UniProt P11309); assay: Pim-1 kinase assay; settings: 1 mM ATP; read-out: Pim1 IC50
Sequence of Pim-1 (P11309 whole entry): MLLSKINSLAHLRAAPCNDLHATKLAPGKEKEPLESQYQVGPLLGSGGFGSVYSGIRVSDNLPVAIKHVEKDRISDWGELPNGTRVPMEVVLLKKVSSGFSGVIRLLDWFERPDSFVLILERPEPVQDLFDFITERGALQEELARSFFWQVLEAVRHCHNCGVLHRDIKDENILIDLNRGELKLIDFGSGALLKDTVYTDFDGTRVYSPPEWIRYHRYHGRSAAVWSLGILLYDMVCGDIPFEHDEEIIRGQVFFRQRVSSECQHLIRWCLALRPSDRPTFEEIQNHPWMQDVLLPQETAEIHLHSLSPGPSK
Description: Supplementation of the STOP buffer with beads and stopping the reactions were done under reduced light. Prior to the stopping reactions STOP buffer with beads was pre-incubated for 1 h in the dark at room temperature. After stopping the reactions, plates were incubated for 1 h in the dark at room temperature before reading on a PHERAstar FS plate reader (BMG Labtech) under reduced light.

Row | Structure (SMILES) | IC50 [1] [nM] | IC50 ([2]; 1 mM ATP, read-out: Pim2 IC50) [nM] | IC50 [3] [nM] | IC50 ([2]; Km ATP concentration rather than 1 mM, read-out: Pim2 IC50 at Km ATP concentration) [nM]
1 | CC1(O)CCc2c1ncc(NC(=O)c1nc(-c3c(F)cccc3F)sc1N)c2N1CCC[C@H](N)C1 (single isomer, unassigned) [19 (Diastereoisomer 2)] | ≤ 100 | 100 to 1000 | ≤ 100 | 
2 | C[S+]([O-])c1cc(F)c(-c2nc(C(=O)Nc3cnc4c(c3N3CCC[C@H](N)C3)CCC4O)ccc2F)c(F)c1 (single isomer, unassigned) [59 (Diastereoisomer 1)] | ≤ 100 | 100 to 1000 | ≤ 100 | 
3 | N[C@@H]1CN(c2c(NC(=O)c3ccc(F)c(-c4c(F)cccc4F)n3)cnc3c2CCC3O)C[C@H](C2CC2)[C@H]1O (single isomer, unassigned) [68 (Diastereoisomer 2)] | ≤ 100 | ≤ 100 | ≤ 100 | 
4 | Nc1sc(-c2c(F)cccc2F)nc1C(=O)Nc1cnc2c(c1N1CCC[C@H](N)C1)CCC2=O [Example 20, 5-Amino-N-{4-[(3S)-3-aminopiperidin-1-yl]-7-oxo-6,7-dihydro-5H-cyclopenta[b]pyridin-3-yl}-2-(2,6-difluorophenyl)-1,3-thiazole-4-carboxamide] | ≤ 100 | ≤ 100 | ≤ 100 | 
5 | N[C@H]1CCCN(c2c(NC(=O)c3ccc(F)c(-c4c(F)cccc4F)n3)cnc3c2CCC3O)C1 (single isomer, unassigned) [22 (Diastereoisomer 2)] | ≤ 100 | ≤ 100 | ≤ 100 | 
6 | N[C@H]1CCCN(c2c(NC(=O)c3csc(-c4c(F)cccc4F)n3)cnc3[nH]ncc23)C1 [compound 35] |  |  |  | 1000 to 10000
7 | COCc1cc(F)c(-c2nc(C(=O)Nc3cnc4c(c3N3C[C@H](C)C[C@H](N)C3)CCC4O)ccc2F)c(F)c1 (single isomer, unassigned) [64 (Diastereoisomer 1)] | ≤ 100 | ≤ 100 | ≤ 100 | 
8 | C[C@H]1CN(c2c(NC(=O)c3nc(-c4c(F)cccc4F)c(F)cc3N)cnc3c2CCC3O)C[C@@H](N)[C@@H]1O (single isomer, unassigned) [48 (Diastereoisomer 2)] | ≤ 100 | ≤ 100 | ≤ 100 | 
9 | N[C@H]1CCCN(c2c(NC(=O)c3csc(-c4c(F)cccc4F)n3)cnc3c2CCC3O)C1 (single isomer, unassigned) [16 (Diastereoisomer 2)] | ≤ 100 | > 2000 | ≤ 100 | 
10 | C[C@H]1CN(c2c(NC(=O)c3ccc(F)c(-c4c(F)cccc4F)n3)cnc3c2CCC3O)C[C@@H](N)C1(C)O (single isomer, unassigned) [63 (Diastereoisomer 4)] | ≤ 100 | ≤ 100 | ≤ 100 | 
11 | CC1(N)CCCN(c2c(NC(=O)c3nc(-c4c(F)cccc4F)sc3N)cnc3c2CCC3)C1 (stereo not shown) [Example 57, 5-Amino-N-[4-(3-amino-3-methylpiperidin-1-yl)-6,7-dihydro-5H-cyclopenta[b]pyridin-3-yl]-2-(2,6-difluorophenyl)-1,3-thiazole-4-carboxamide] | ≤ 100 | 100 to 1000 | ≤ 100 | 
12 | Nc1sc(-c2c(F)cccc2F)nc1C(=O)Nc1cnc2c(c1N1CCC[C@H](N)C1)CCC2 [Example 14, 5-Amino-N-{4-[(3S)-3-aminopiperidin-1-yl]-6,7-dihydro-5H-cyclopenta[b]pyridin-3-yl}-2-(2,6-difluorophenyl)-1,3-thiazole-4-carboxamide] | ≤ 100 | ≤ 100 | ≤ 100 | 
13 | CC(C)(O)c1cc(F)c(-c2nc(C(=O)Nc3cnc4c(c3N3C[C@@H](N)C[C@@H](C(F)(F)F)C3)CCC4O)ccc2F)c(F)c1 (single isomer, unassigned) [72 (Diastereoisomer 1)] | ≤ 100 | ≤ 100 | ≤ 100 | 
14 | C[C@@H]1C[C@H](N)CN(c2c(NC(=O)c3ccc(F)c(-c4c(F)cc([S+](C)[O-])cc4F)n3)cnc3c2CCC3O)C1 (single isomer, unassigned) [60 (Diastereoisomer 1)] | ≤ 100 | 100 to 1000 | ≤ 100 | 
15 | Nc1sc(-c2c(F)cccc2F)nc1C(=O)Nc1cnc2c(c1N1CC[C@@H](O)[C@H](N)C1)CCC2 (single isomer, unassigned) [Example 25, 5-Amino-N-{4-[3,4-trans-3-amino-4-hydroxypiperidin-1-yl]-6,7-dihydro-5H-cyclopenta[b]pyridin-3-yl}-2-(2,6-difluorophenyl)-1,3-thiazole-4-carboxamide] | ≤ 100 | ≤ 100 | ≤ 100 | 
16 | C[C@H]1CN(c2c(NC(=O)c3ccc(F)c(-c4c(F)cccc4F)n3)cnc3c2CCC3)C[C@@H](N)[C@@H]1O [Example 52, N-{4-[(3R,4R,5S)-3-Amino-4-hydroxy-5-methylpiperidin-1-yl]-6,7-dihydro-5H-cyclopenta[b]pyridin-3-yl}-6-(2,6-difluorophenyl)-5-fluoropyridine-2-carboxamide] | ≤ 100 | ≤ 100 | ≤ 100 | 
17 | C[C@@H]1C[C@H](N)CN(c2c(NC(=O)c3ccc(F)c(-c4c(F)cc(OC5CCCOC5)cc4F)n3)cnc3c2CCC3O)C1 (single isomer, unassigned) [70 (Diastereoisomer 1)] | ≤ 100 | ≤ 100 | ≤ 100 | 
18 | N[C@H]1CCCN(c2c(NC(=O)c3csc(-c4c(F)cccc4F)n3)cnc3[nH]ccc23)C1 [Example 8, N-{4-[(3S)-3-Aminopiperidin-1-yl]-1H-pyrrolo[2,3-b]pyridin-5-yl}-2-(2,6-difluorophenyl)-1,3-thiazole-4-carboxamide] | ≤ 100 | > 2000 | ≤ 100 | 
19 | N[C@H]1C[C@@H](C(F)(F)F)CN(c2c(NC(=O)c3ccc(F)c(-c4c(F)cccc4F)n3)cnc3c2CCO3)C1 [Example 43, N-{4-[(3S,5R)-3-amino-5-(trifluoromethyl)piperidin-1-yl]-2,3-dihydrofuro[2,3-b]pyridin-5-yl}-6-(2,6-difluorophenyl)-5-fluoropyridine-2-carboxamide] | ≤ 100 | ≤ 100 | ≤ 100 | 
20 | C[C@H]1CN(c2c(NC(=O)c3nc(-c4c(F)cccc4F)sc3N)cnc3c2CCC3)C[C@@H](N)[C@@H]1O [Example 28, 5-Amino-N-{4-[(3R,4R,5S)-3-amino-4-hydroxy-5-methylpiperidin-1-yl]-6,7-dihydro-5H-cyclopenta[b]pyridin-3-yl}-2-(2,6-difluorophenyl)-1,3-thiazole-4-carboxamide] | ≤ 100 | ≤ 100 | ≤ 100 | 
21 | C[C@@H]1C[C@H](N)CN(c2c(NC(=O)c3nc(-c4c(F)cccc4F)sc3N)cnc3c2CCC3O)C1 (single isomer, unassigned) [47 (Diastereoisomer 2)] | ≤ 100 | ≤ 100 | ≤ 100 | 
22 | CC(C)(O)c1cc(F)c(-c2nc(C(=O)Nc3cnc4c(c3N3C[C@@H](N)C[C@@H](C(F)(F)F)C3)CCC4O)ccc2F)c(F)c1 (single isomer, unassigned) [72 (Diastereoisomer 2)] | ≤ 100 | ≤ 100 | ≤ 100 | 
23 | COc1ccc(F)c(-c2nc(C(=O)Nc3cnc4c(c3N3C[C@H](C)C[C@H](N)C3)CCC4O)c(N)s2)c1F (single isomer, unassigned) [54 (Diastereoisomer 2)] | ≤ 100 | ≤ 100 | ≤ 100 | 
24 | N#CC1CCc2c1ncc(NC(=O)c1nc(-c3c(F)cccc3F)sc1N)c2N1CCC[C@H](N)C1 (single isomer, unassigned) [18 (Diastereoisomer 1)] | ≤ 100 | 100 to 1000 | ≤ 100 | 
25 | N[C@H]1CCCN(c2c(NC(=O)c3ccc(F)c(-c4c(F)cccc4F)n3)cnc3c2CCCN3)C1 [Example 33, N-{4-[(3S)-3-Aminopiperidin-1-yl]-5,6,7,8-tetrahydro-1,8-naphthyridin-3-yl}-6-(2,6-difluorophenyl)-5-fluoropyridine-2-carboxamide] | ≤ 100 | 100 to 1000 | ≤ 100 | 
